Assay results from ChEMBL document CHEMBL4118235, “The recent progress of isoxazole in medicinal chemistry” (Bioorg Med Chem, 2018).
Values after ≈ are worked out from the molar mass of the structure shown.

Assays:
HCT-116 [1] = test: Antitumor activity against human HCT116 cells xenografted in BALB/c nude mouse assessed as tumor growth inhibition at 100 mg/kg, ip for 16 days; assay type: functional; conditions: HCT-116, ip, 384 h, read-out: TGI
HCT-116 [2] = test: Antitumor activity against human HCT116 cells xenografted in BALB/c nude mouse assessed as tumor growth inhibition at 50 mg/kg, ip for 16 days; assay type: functional; conditions: HCT-116, ip, 384 h, read-out: TGI
CT26 = test: Cytotoxicity against mouse CT26 cells after 5 days by hemocytometry; assay type: functional, cell-based; conditions: CT26, 120 h
MC-38 = test: Cytotoxicity against mouse Colon 38 cells after 5 days by hemocytometry; assay type: functional, cell-based; conditions: MC-38, 120 h
Homo sapiens [3] = organism: Homo sapiens; test: Selectivity ratio of IC50 for human HDAC2 to IC50 for recombinant human full length HDAC6 expressed in baculovirus infected Sf9 insect cells
Homo sapiens [4] = organism: Homo sapiens; test: Selectivity ratio of IC50 for human HDAC3 to IC50 for recombinant human full length HDAC6 expressed in baculovirus infected Sf9 insect cells
[5] = biological target: T1, Protein deacetylase HDAC6 (Homo sapiens, UniProt Q9UBN7); test: Inhibition of recombinant human full length HDAC6 expressed in baculovirus infected Sf9 insect cells using RHKKAC as substrate incubated for 5 to 10 mins followed by substrate addition measured after 2 hrs by fluorescence assay
T1 sequence (Q9UBN7 whole entry): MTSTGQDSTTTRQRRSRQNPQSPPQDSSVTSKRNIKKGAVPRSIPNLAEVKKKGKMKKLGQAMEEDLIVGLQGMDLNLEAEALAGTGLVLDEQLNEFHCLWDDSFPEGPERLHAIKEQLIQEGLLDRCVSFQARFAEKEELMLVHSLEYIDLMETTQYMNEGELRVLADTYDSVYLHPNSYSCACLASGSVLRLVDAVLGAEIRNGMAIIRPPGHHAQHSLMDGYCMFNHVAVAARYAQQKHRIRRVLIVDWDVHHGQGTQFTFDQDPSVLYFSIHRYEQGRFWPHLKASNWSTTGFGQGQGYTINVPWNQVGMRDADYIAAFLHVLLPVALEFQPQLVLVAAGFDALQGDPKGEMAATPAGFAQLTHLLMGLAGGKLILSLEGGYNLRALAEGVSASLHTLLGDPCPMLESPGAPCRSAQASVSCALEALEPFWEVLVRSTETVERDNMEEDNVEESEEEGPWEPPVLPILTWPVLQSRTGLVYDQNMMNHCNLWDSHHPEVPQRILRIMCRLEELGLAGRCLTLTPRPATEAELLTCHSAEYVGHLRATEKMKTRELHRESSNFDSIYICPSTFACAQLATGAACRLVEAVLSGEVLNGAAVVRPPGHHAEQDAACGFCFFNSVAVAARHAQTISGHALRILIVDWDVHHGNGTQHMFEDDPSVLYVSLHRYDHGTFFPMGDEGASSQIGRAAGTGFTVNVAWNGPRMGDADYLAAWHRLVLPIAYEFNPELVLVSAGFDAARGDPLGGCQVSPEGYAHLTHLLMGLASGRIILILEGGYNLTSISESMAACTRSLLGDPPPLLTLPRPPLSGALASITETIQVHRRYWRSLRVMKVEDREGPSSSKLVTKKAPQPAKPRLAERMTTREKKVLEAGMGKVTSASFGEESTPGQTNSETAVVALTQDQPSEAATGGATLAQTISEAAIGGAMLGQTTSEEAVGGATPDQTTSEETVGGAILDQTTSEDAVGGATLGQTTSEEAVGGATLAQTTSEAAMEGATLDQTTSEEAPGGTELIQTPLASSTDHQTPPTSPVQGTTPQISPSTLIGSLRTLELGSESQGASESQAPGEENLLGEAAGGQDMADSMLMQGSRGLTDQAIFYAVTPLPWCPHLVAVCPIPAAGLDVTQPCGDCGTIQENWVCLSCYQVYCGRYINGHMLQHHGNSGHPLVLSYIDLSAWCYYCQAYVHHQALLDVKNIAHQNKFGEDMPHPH

Homo sapiens [6] = organism: Homo sapiens; test: Selectivity ratio of IC50 for recombinant human full length HDAC1 expressed in baculovirus infected Sf9 insect cells to IC50 for recombinant human full length HDAC6 expressed in baculovirus infected Sf9 insect cells
[7] = tested on: Mycobacterium tuberculosis; test: Antimycobacterial activity against Mycobacterium tuberculosis H37Rv; assay type: functional
Staphylococcus aureus = test: Antibacterial activity against Staphylococcus aureus ATCC 6538P after 24 hrs by agar well diffusion method; assay type: functional
Escherichia coli = test: Antibacterial activity against Escherichia coli ATCC 8739 after 24 hrs by agar well diffusion method; assay type: functional; conditions: ATCC 8739, 24 h
MCF7 = test: Antiproliferative activity against human MCF7 cells after 48 hrs by MTT assay; assay type: functional, cell-based; conditions: MCF7, 48 h
HeLa = test: Antiproliferative activity against human HeLa cells after 48 hrs by MTT assay; assay type: functional, cell-based

| Structure (SMILES) | Ratio IC50 (Homo sapiens [3]) | Ratio IC50 (Homo sapiens [4]) | IC50 [5] | Ratio IC50 (Homo sapiens [6]) | further results |
| --- | --- | --- | --- | --- | --- |
| CCc1cc(-c2oncc2-c2ccc(OC)cc2)c(O)cc1OC | – | – | – | – | inhibition in vivo at 100 mg/kg (HCT-116 [1]): 70.3%; inhibition in vivo at 50 mg/kg (HCT-116 [2]): 49.5% |
| O=C(Nc1ccc(Cl)cc1)c1ccno1 | – | – | – | – | IC50 (CT26): 2.5 µg/mL (≈ 11.2 µM); IC50 (MC-38): 2.5 µg/mL (≈ 11.2 µM) |
| CC(C)(C)OC(=O)Nc1ccc(-c2cc(C(=O)NCc3ccc(C(=O)NO)cc3)no2)cc1 | > 500 | > 500 | < 0.01 µM | > 500 | – |
| CCCCCCC(=O)Nc1ccc(-c2cc(C(=O)NCc3ccc(C(=O)NO)cc3)no2)cc1 | > 500 | > 500 | < 0.01 µM | > 500 | – |
| CCOC(=O)c1cc(/C=C/c2ccnc3ccccc23)on1 | – | – | – | – | MIC [7]: 0.2 µM (≈ 0.0589 µg/mL) |
| CCCCCCC(=O)Nc1cccc(-c2cc(C(=O)NCc3ccc(C(=O)NO)cc3)no2)c1 | > 500 | > 500 | < 0.01 µM | > 500 | – |
| O=[N+]([O-])c1ccc(-c2cc(C3CC3)no2)cc1 | – | – | – | – | MIC (Staphylococcus aureus): 25 µg/mL (≈ 109 µM); MIC (Escherichia coli): 25 µg/mL (≈ 109 µM) |
| CC(C)(C)OC(=O)Nc1cccc(-c2cc(C(=O)NCc3ccc(C(=O)NO)cc3)no2)c1 | > 500 | > 500 | < 0.01 µM | > 500 | – |
| COc1ccc(-c2cc(-c3cccs3)on2)cc1OC | – | – | – | – | IC50 (MCF7): 19.5 µM; IC50 (HeLa): 39.2 µM |
